Laboratory results from patent US10160771B2, “Hepatitis C virus inhibitors and uses thereof in preparation of drugs” (priority 2014, dated 2018).

What was measured:
[1] = system: HCV genotype 1a (HCV-1a) replicon cells; assay: HCV genotype 1a replicon luciferase assay (EC50); assay type: cell-based, hepatitis C virus genotype 1a (H77 clone); conditions: Hepatitis C virus, 72 h, 3 days, luciferase (Bright-Glo)
Summary of the method: (§1)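 EC50 values come from nonlinear fitting of inhibition derived from replicon luciferase signal. Cells (8000/well) were treated 3 days with duplicate 6-point, 5-fold dilutions, starting at 100, 10 or 1 nM, with 0.5% DMSO.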

[2] = Cell Titer-fluor cell activity assay in HCV-1b replicon cells (CC50); assay type: cell-based
Summary of the method: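 CC50 derived by nonlinear fitting of inhibition % from Cell Titer-fluor signal (405/515 nm, 30 min). Cells: genotype 1b Con1 replicon carrying E1202G, T1280I, K1846T, seeded 8000/well with compound for 3 days, 37 °C, 0.5% DMSO; 6 points, 5-fold dilution, top 100, 10 or 1 nM, duplicates.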

[3] = system: HCV genotype 1b (HCV-1b) replicon cells; assay: HCV genotype 1b replicon luciferase assay (EC50); assay type: cell-based, hepatitis C virus genotype 1b (Con1 clone); conditions: Hepatitis C virus, 72 h, 3 days, luciferase (Bright-Glo)
Summary of the method: as §1

Row | SMILES | EC50 [1] [nM] | CC50 at 3 days [2] [nM] | EC50 [3] [nM]
1 | COC(=O)N[C@H](C(=O)N1CCC[C@H]1c1ncc(-c2ccc(-c3ccc(-c4cnc(C5C6CCC(C6)[C@H]5C(=O)N(NC(=O)OC)C(C)C)[nH]4)cc3)c(OC)c2)[nH]1)C(C)C (stereo partly drawn) [AA_190_B] | 10 to 100 | > 1 | 0.101 to 1
2 | COC(=O)N[C@H](C(=O)N1CCC[C@H]1c1ncc(-c2ccc(-c3ccc(-c4cnc([C@@H]5[C@H]6CC[C@H](C6)[C@H]5C(=O)NCc5cncnc5)[nH]4)cc3)cc2)[nH]1)C(C)C [AA_201_ENDOA2] | 0.101 to 1 | > 1 | 0.001 to 0.1
3 | COC(=O)N[C@H](C(=O)N1CCC[C@H]1c1ncc(-c2ccc(-c3ccc(-c4cnc(C5CC6(C[C@@H]5C(=O)N(NC(=O)OC)C(C)C)OCCO6)[nH]4)cc3)cc2)[nH]1)C(C)C (stereo partly drawn) [AA_160] | 1 to 10 | > 50 | 0.001 to 0.1
4 | COC(=O)N[C@H](C(=O)N1CCC[C@H]1c1ncc(-c2ccc(-c3ccc(-c4cnc(C5C6CCC(C6)[C@H]5C(=O)NCc5cccnc5O)[nH]4)cc3)cc2)[nH]1)[C@@H](C)OC (stereo partly drawn) [AA_263_C] | 10 to 100 | > 1 | 0.101 to 1
5 | COC(=O)N[C@H](C(=O)N1CCC[C@H]1c1ncc(-c2ccc(-c3ccc(-c4cnc(C5C6CCC(C6)[C@H]5C(=O)NCc5cccnc5F)[nH]4)cc3)cc2)[nH]1)[C@@H](C)OC (stereo partly drawn) [AA_252_B] | 1 to 10 | > 1 | 0.001 to 0.1
6 | COC(=O)N[C@H](C(=O)N1CCC[C@H]1c1ncc(-c2ccc(-c3ccc(-c4cnc(C5C6CCC(C6)[C@@H]5C(=O)NNc5nccnc5Cl)[nH]4)cc3)cc2)[nH]1)[C@@H](C)OC (stereo partly drawn) [AA_250_A] | 10 to 100 | > 1 | 0.101 to 1
7 | COC(=O)N[C@H](C(=O)N1CCC[C@H]1c1ncc(-c2ccc(-c3ccc(-c4cnc(C5C6CCC(C6)[C@H]5C(=O)NCCO)[nH]4)cc3)cc2)[nH]1)[C@@H](C)OC (stereo partly drawn) [AA_220_A] | 10 to 100 | > 1 | 0.101 to 1
8 | COC(=O)N[C@H](C(=O)N1CCC[C@H]1c1ncc(-c2ccc(-c3ccc(-c4cnc(C5CCCC[C@@H]5C(=O)N(NC(=O)OC)C(C)C)[nH]4)cc3C(F)(F)F)cc2)[nH]1)C(C)C (stereo partly drawn) [AA_127] | 10 to 100 | > 10 | 0.101 to 1
9 | COC(=O)N[C@H](C(=O)N1CCC[C@H]1c1ncc(-c2ccc(-c3ccc(-c4cnc([C@H]5C6CCC(C6)[C@@H]5C(=O)NCc5cccnc5C(C)C)[nH]4)cc3)cc2)[nH]1)C(C)C (stereo partly drawn) [AA_215_A] | 10 to 100 | > 1 | 0.001 to 0.1
10 | COC(=O)N[C@H](C(=O)N1CCC[C@H]1c1ncc(-c2ccc(-c3ccc(-c4cnc(C5C6CCC(C6)[C@@H]5C(=O)NCc5ccc(C(F)(F)F)nc5)[nH]4)cc3)cc2)[nH]1)[C@@H](C)OC (stereo partly drawn) [AA_264_A] | 1 to 10 | > 1 | 0.101 to 1
11 | COC(=O)N[C@H](C(=O)N1CCC[C@H]1c1ncc(-c2ccc(-c3ccc(-c4cnc(C5C6CCC(C6)[C@@H]5C(=O)NCCO)[nH]4)cc3)cc2)[nH]1)[C@@H](C)OC (stereo partly drawn) [AA_220_B] | 10 to 100 | > 1 | 1 to 10
12 | COC(=O)N[C@H](C(=O)N1CCC[C@H]1c1ncc(-c2ccc(-c3ccc(-c4cnc([C@H]5C6CCC(C6)[C@@H]5C(=O)NCc5cccnc5OC)[nH]4)cc3)cc2)[nH]1)C(C)C (stereo partly drawn) [AA_203_A] | 1 to 10 | > 1 | 0.001 to 0.1
13 | COC(=O)N[C@H](C(=O)N1CCC[C@H]1c1ncc(-c2ccc(-c3ccc(-c4cnc([C@@H]5C6CCC(C6)C5C(=O)NCc5cccnc5)[nH]4)cc3)nc2)[nH]1)[C@@H](C)OC (stereo partly drawn) [AA_242_B] | 10 to 100 | > 1 | 0.101 to 1
14 | COC(=O)N[C@H](C(=O)N1CCC[C@H]1c1cnc(-c2ccc(-c3ccc(-c4ncc(C5C6CCC(C6)[C@@H]5C(=O)N(NC(=O)OC)C(C)C)[nH]4)cc3)cc2OC)[nH]1)C(C)C (stereo partly drawn) [AA_166_B] | 10 to 100 | > 5 | 0.101 to 1
15 | COC(=O)N[C@H](C(=O)NC1(c2ncc(-c3ccc(-c4ccc(-c5ccc([C@@H]6CCCN6C(=O)[C@@H](NC(=O)OC)[C@@H](C)OC)[nH]5)cc4)cc3)[nH]2)CC1)[C@@H](C)OC [AG_106] | 10 to 100 | > 1 | 0.001 to 0.1
16 | COC(=O)N[C@H](C(=O)N1C[C@@H](OC)C[C@H]1c1ncc(-c2ccc(-c3ccc(-c4cnc([C@H]5C6CCC(C6)[C@@H]5C(=O)NCc5cccnc5)[nH]4)cc3)cc2)[nH]1)[C@@H](C)OC (stereo partly drawn) [AA_231_B] | 1 to 10 | > 1 | 0.001 to 0.1
17 | COC(=O)N[C@H](C(=O)N1CCC[C@H]1c1ncc(-c2ccc(-c3ccc(-c4cnc([C@@H]5C6CCC(C6)[C@H]5C(=O)NCc5cncnc5)[nH]4)cc3)cc2)[nH]1)C(C)C (stereo partly drawn) [AA_201_B] | 1 to 10 | > 1 | 0.001 to 0.1
